Drawing on US20200405697A1, “Antitumor Agent” (Taiho Pharmaceutical Co., Ltd, priority 2017, published 2020), this text covers IC50 for 23 compounds.

SMILES strings stand for the structures.

The experiment has as its target T1, human RNR (histidine tagged human M1 and human M2 proteins) (Homo sapiens, UniProt P23921).
T1 construct: made in house; host or cells: Escherichia coli
T1 sequence (P23921 1-792): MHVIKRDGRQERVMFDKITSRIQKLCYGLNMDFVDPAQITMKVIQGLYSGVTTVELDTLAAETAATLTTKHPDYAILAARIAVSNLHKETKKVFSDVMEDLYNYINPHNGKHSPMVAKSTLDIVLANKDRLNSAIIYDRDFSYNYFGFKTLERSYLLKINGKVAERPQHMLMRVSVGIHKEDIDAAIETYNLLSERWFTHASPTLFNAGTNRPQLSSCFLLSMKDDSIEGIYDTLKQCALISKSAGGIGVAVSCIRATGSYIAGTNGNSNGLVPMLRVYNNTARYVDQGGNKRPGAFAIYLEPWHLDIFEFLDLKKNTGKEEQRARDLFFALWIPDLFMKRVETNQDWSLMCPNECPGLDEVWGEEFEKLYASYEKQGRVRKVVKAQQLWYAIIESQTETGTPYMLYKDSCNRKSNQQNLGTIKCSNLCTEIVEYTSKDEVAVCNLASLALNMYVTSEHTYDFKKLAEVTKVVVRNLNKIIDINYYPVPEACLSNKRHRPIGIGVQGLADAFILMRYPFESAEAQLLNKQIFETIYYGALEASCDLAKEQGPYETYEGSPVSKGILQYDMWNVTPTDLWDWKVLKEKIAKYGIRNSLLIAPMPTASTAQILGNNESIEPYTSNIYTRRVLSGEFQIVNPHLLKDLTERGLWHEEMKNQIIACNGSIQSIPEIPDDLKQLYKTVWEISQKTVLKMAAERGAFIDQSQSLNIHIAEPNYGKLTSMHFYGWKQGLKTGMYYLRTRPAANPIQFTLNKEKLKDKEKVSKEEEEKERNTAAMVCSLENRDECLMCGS
Description: Human RNR inhibition effect (dCDP formation from CDP). It counts as biochemical. Particulars: 10 μM CDP, 37° C. for 30 minutes, read-out: RNR inhibitory activity IC50. The gist of the method:
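His-tagged human M1 (isoform 1) and N-terminal 59-aa-truncated M2 (isoform 2), E. coli-expressed, Ni-purified, preincubated 20 min with compound (1% DMSO). Reaction with 10 μM CDP, 2 mM ATP, 0.24 mM NADPH, 6 mM DTT, 4 mM Mg acetate, 100 mM KCl, 50 mM HEPES pH 7.2, 30 min at 37° C. dCDP formed quantified by reverse-phase HPLC after heat stop.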

For the compound `Cc1ccc(F)c([C@@H](C)[C@H](NS(=O)(=O)c2ccc(Cl)c(S(N)(=O)=O)c2)c2n[nH]c(=O)o2)c1C` [Example 176, 4-chloro-N1-((1S,2R)-2-(6-fluoro-2,3-dimethylphenyl)-1-(5-oxo-4,5-dihydro-1,3,4-oxadiazol-2-yl)propyl)benzene-1,3-disulfonamide], the IC50 – broadly, the midpoint of a concentration-inhibition curve – was 810 nM.
For `COC(=O)c1c(F)ccc(S(=O)(=O)N[C@H](c2n[nH]c(=O)o2)[C@H](C)c2c(F)ccc(C)c2C)c1F` [Example 178, methyl 2,6-difluoro-3-(N-((1S,2R)-2-(6-fluoro-2,3-dimethylphenyl)-1-(5-oxo-4,5-dihydro-1,3,4-oxadiazol-2-yl)propyl)sulfamoyl)benzoate], the IC50 stood at 170 nM.
As to `Cc1ccc(F)c([C@@H](C)[C@H](NS(=O)(=O)c2ccc3c(c2)C(=O)CCO3)c2n[nH]c(=O)o2)c1C` [Example 179, N-((1S,2R)-2-(6-fluoro-2,3-dimethylphenyl)-1-(5-oxo-4,5-dihydro-1,3,4-oxadiazol-2-yl)propyl)-4-oxochroman-6-sulfonamide], the IC50 stood at 280 nM.
On to `Cc1ccc(F)c([C@@H](C)[C@H](NS(=O)(=O)c2ccc3[nH]nnc3c2)c2n[nH]c(=O)o2)c1C` [Example 181, N-((1S,2R)-2-(6-fluoro-2,3-dimethylphenyl)-1-(5-oxo-4,5-dihydro-1,3,4-oxadiazol-2-yl)propyl)-1H-benzo[d][1,2,3]triazole-5-sulfonamide], for which the IC50 was determined as 660 nM.
To `Cc1ccc(F)c([C@@H](C)[C@H](NS(=O)(=O)c2ccc3[nH]ncc3c2)c2n[nH]c(=O)o2)c1C` [Example 182, N-((1S,2R)-2-(6-fluoro-2,3-dimethylphenyl)-1-(5-oxo-4,5-dihydro-1,3,4-oxadiazol-2-yl)propyl)-1H-indazole-5-sulfonamide] belongs 410 nM.
In the case of `Cc1ccc(F)c([C@@H](C)[C@H](NS(=O)(=O)c2ccc3c(c2)CCCO3)c2n[nH]c(=O)o2)c1C` [Example 183, N-((1S,2R)-2-(6-fluoro-2,3-dimethylphenyl)-1-(5-oxo-4,5-dihydro-1,3,4-oxadiazol-2-yl)propyl)chroman-6-sulfonamide], the IC50 was 320 nM.
To `Cc1ccc(F)c([C@@H](C)[C@H](NS(=O)(=O)c2ccc3c(c2)N(C)CCC3)c2n[nH]c(=O)o2)c1C` [Example 184, N-((1S,2R)-2-(6-fluoro-2,3-dimethylphenyl)-1-(5-oxo-4,5-dihydro-1,3,4-oxadiazol-2-yl)propyl)-1-methyl-1,2,3,4-tetrahydroquinoline-7-sulfonamide] belongs 220 nM; to `C=C(c1c(F)ccc(C)c1C)[C@H](NS(=O)(=O)c1ccc(Cl)cc1OC)c1n[nH]c(=O)o1` [Example 185, (S)-4-chloro-N-(2-(6-fluoro-2,3-dimethylphenyl)-1-(5-oxo-4,5-dihydro-1,3,4-oxadiazol-2-yl)allyl)-2-methoxybenzensulfonamide], 600 nM; to `Cc1ccc(F)c([C@@H](C)[C@H](NS(=O)(=O)c2ccc(F)c(C(C)(C)O)c2F)c2n[nH]c(=O)o2)c1C` [Example 186, 2,4-difluoro-N-((1S,2R)-2-(6-fluoro-2,3-dimethylphenyl)-1-(5-oxo-4,5-dihydro-1,3,4-oxadiazol-2-yl)propyl)-3-(2-hydroxypropan-2-yl)benzenesulfonamide], 90 nM.
Turning to `C[C@H](c1cccc2c1CCC2)[C@H](NS(=O)(=O)c1ccc(Br)c(C(C)(C)O)c1)c1n[nH]c(=O)o1` [Example 188, 4-bromo-N-((1S,2R)-2-(2,3-dihydro-1H-inden-4-yl)-1-(5-oxo-4,5-dihydro-1,3,4-oxadiazol-2-yl)propyl)-3-(2-hydroxypropan-2-yl)benzenesulfonamide], the IC50 came out at 640 nM.
Turning to `C[C@H](c1cccc2c1CCC2)[C@H](NS(=O)(=O)c1ccc(F)c(C(C)(C)O)c1F)c1n[nH]c(=O)o1` [Example 189, N-((1S,2R)-2-(2,3-dihydro-1H-inden-4-yl)-1-(5-oxo-4,5-dihydro-1,3,4-oxadiazol-2-yl)propyl)-2,4-difluoro-3-(2-hydroxypropan-2-yl)benzenesulfonamide], the IC50 was 550 nM.
For `C[C@H](c1cccc2c1CCC2)[C@H](NS(=O)(=O)c1ccc(Cl)c(C(C)(C)O)n1)c1n[nH]c(=O)o1` [Example 192, 5-chloro-N-((1S,2R)-2-(2,3-dihydro-1H-inden-4-yl)-1-(5-oxo-4,5-dihydro-1,3,4-oxadiazol-2-yl)propyl)-6-(2-hydroxypropan-2-yl)pyridine-2-sulfonamide], the IC50 was 440 nM.
The value for `Cc1ccc(F)c([C@@H](C)[C@H](NS(=O)(=O)c2ccc(Cl)c(C(C)(C)O)n2)c2n[nH]c(=O)o2)c1C` [Example 193, 5-chloro-N-((1S,2R)-2-(6-fluoro-2,3-dimethylphenyl)-1-(5-oxo-4,5-dihydro-1,3,4-oxadiazol-2-yl)propyl)-6-(2-hydroxypropan-2-yl)pyridine-2-sulfonamide] was 90 nM; that for `Cc1ccc(F)c([C@@H](C)[C@H](NS(=O)(=O)c2ccc3c(c2)C(C)(O)CCC3)c2n[nH]c(=O)o2)c1C` (stereo partly drawn) [Example 194, N-((1S,2R)-2-(6-fluoro-2,3-dimethylphenyl)-1-(5-oxo-4,5-dihydro-1,3,4-oxadiazol-2-yl)propyl)-8-hydroxy-8-methyl-5,6,7,8-tetrahydronaphthalene-2-sulfonamide] was 360 nM; that for `Cc1ccc(F)c([C@@H](C)[C@H](NS(=O)(=O)c2ccc3c(c2)C(C)(O)CCO3)c2n[nH]c(=O)o2)c1C` (stereo partly drawn) [Example 195, N-((1S,2R)-2-(6-fluoro-2,3-dimethylphenyl)-1-(5-oxo-4,5-dihydro-1,3,4-oxadiazol-2-yl)propyl)-4-hydroxy-4-methylchroman-6-sulfonamide] was 180 nM.
In the case of `Cc1ccc(F)c([C@@H](C)[C@H](NS(=O)(=O)c2cc(C(C)(C)O)c(F)cc2C(N)=O)c2n[nH]c(=O)o2)c1C` [Example 196, 5-fluoro-2-(N-((1S,2R)-2-(6-fluoro-2,3-dimethylphenyl)-1-(5-oxo-4,5-dihydro-1,3,4-oxadiazol-2-yl)propyl)sulfamoyl)-4-(2-hydroxypropan-2-yl)benzamide], the IC50 came to 80 nM.
`Cc1ccc(F)c([C@@H](C)[C@H](NS(=O)(=O)c2cc(C(C)(C)O)ccc2C(N)=O)c2n[nH]c(=O)o2)c1C` [Example 197, 2-(N-((1S,2R)-2-(6-fluoro-2,3-dimethylphenyl)-1-(5-oxo-4,5-dihydro-1,3,4-oxadiazol-2-yl)propyl)sulfamoyl)-4-(2-hydroxypropan-2-yl)benzamide]: the IC50 came to 60 nM.
To `Cc1ccc(F)c([C@@H](C)[C@H](NS(=O)(=O)c2cc(C(C)(C)O)c(Cl)cc2C(N)=O)c2n[nH]c(=O)o2)c1C` [Example 198, 5-chloro-2-(N-((1S,2R)-2-(6-fluoro-2,3-dimethylphenyl)-1-(5-oxo-4,5-dihydro-1,3,4-oxadiazol-2-yl)propyl)sulfamoyl)-4-(2-hydroxypropan-2-yl)benzamide] belongs 60 nM; to `CC#CC(O)(C#CC)c1ccc(C(N)=O)c(S(=O)(=O)N[C@H](c2n[nH]c(=O)o2)[C@H](C)c2c(F)ccc(C)c2C)c1` [Example 199], 350 nM.
On to `CC(O)c1c(Cl)ccc(S(=O)(=O)N[C@H](c2n[nH]c(=O)o2)[C@H](C)c2cccc3c2CCC3)c1Cl` (stereo partly drawn) [Example 201, 2,4-dichloro-N-((1S,2R)-2-(2,3-dihydro-1H-inden-4-yl)-1-(5-oxo-4,5-dihydro-1,3,4-oxadiazol-2-yl)propyl)-3-(1-hydroxyethyl)benzenesulfonamide], for which the IC50 turned out to be 170 nM.
Turning to `CC(O)c1nc(S(=O)(=O)N[C@H](c2n[nH]c(=O)o2)[C@H](C)c2cccc3c2CCC3)ccc1Cl` (stereo partly drawn) [Example 202, 5-chloro-N-((1S,2R)-2-(2,3-dihydro-1H-inden-4-yl)-1-(5-oxo-4,5-dihydro-1,3,4-oxadiazol-2-yl)propyl)-6-(1-hydroxyethyl)pyridine-2-sulfonamide], the IC50 is 400 nM.
Take `COc1c(S(=O)(=O)N[C@H](c2n[nH]c(=O)o2)[C@H](C)c2cccc(C)c2C)ccc(Cl)c1C(C)O` (stereo partly drawn) [Example 203, 4-chloro-N-((1S,2R)-2-(2,3-dimethylphenyl)-1-(5-oxo-4,5-dihydro-1,3,4-oxadiazol-2-yl)propyl)-3-(1-hydroxyethyl)-2-methoxybenzenesulfonamide]: the IC50 turned out to be 180 nM.
In the case of `COc1c(S(=O)(=O)N[C@H](c2n[nH]c(=O)o2)[C@H](C)c2c(F)ccc3ccccc23)ccc(Cl)c1C(C)O` (stereo partly drawn) [Example 205, 4-chloro-N-((1S,2R)-2-(2-fluoronaphthalene-1-yl)-1-(5-oxo-4,5-dihydro-1,3,4-oxadiazol-2-yl)propyl)-3-(1-hydroxyethyl)-2-methoxybenzenesulfonamide], the IC50 is 80 nM.
